Results from BigSolDB 2.1.

**Q.** What does the source list for `CO/N=C(/C(=O)N[C@@H]1C(=O)N2C(C(=O)O)=C(COC(N)=O)CS[C@H]12)c1ccco1`?
**A.** solubility (mole fraction) (in acetone, 278.5 K): 0.00362; solubility (mole fraction) (in acetone, 283.4 K): 0.0036; solubility (mole fraction) (in acetone, 288.3 K): 0.00355; solubility (mole fraction) (in acetone, 293.3 K): 0.00342; solubility (mole fraction) (in acetone, 298.3 K): 0.00337; solubility (mole fraction) (in acetone, 303.5 K): 0.00331; solubility (mole fraction) (in acetone, 308.3 K): 0.00327; solubility (mole fraction) (in acetone, 313.4 K): 0.00324; solubility (mole fraction) (in ethanol, 278.5 K): 0.00019; solubility (mole fraction) (in ethanol, 283.4 K): 0.00022; solubility (mole fraction) (in ethanol, 288.3 K): 0.00028; solubility (mole fraction) (in ethanol, 293.3 K): 0.00032; solubility (mole fraction) (in ethanol, 298.3 K): 0.00037; solubility (mole fraction) (in ethanol, 303.5 K): 0.00052; solubility (mole fraction) (in ethanol, 308.3 K): 0.00056; solubility (mole fraction) (in ethanol, 313.4 K): 0.00061; solubility (mole fraction) (in isopropanol, 278.5 K): 6e-05; solubility (mole fraction) (in isopropanol, 283.4 K): 9e-05; solubility (mole fraction) (in isopropanol, 288.3 K): 0.00011; solubility (mole fraction) (in isopropanol, 293.3 K): 0.00012; solubility (mole fraction) (in isopropanol, 298.3 K): 0.00012; solubility (mole fraction) (in isopropanol, 303.5 K): 0.00015; solubility (mole fraction) (in isopropanol, 308.3 K): 0.00027; solubility (mole fraction) (in isopropanol, 313.4 K): 0.00032; solubility (mole fraction) (in water, 278.5 K): 3e-05; solubility (mole fraction) (in water, 283.4 K): 4e-05; solubility (mole fraction) (in water, 288.3 K): 4e-05; solubility (mole fraction) (in water, 293.3 K): 6e-05; solubility (mole fraction) (in water, 298.3 K): 7e-05; solubility (mole fraction) (in water, 303.5 K): 0.00012; solubility (mole fraction) (in water, 308.3 K): 0.00022; solubility (mole fraction) (in water, 313.4 K): 0.00026
